Like-named read-outs stand apart in the source and are kept apart here.
Experiments:
[1] = test system: in vitro BBB model (co-culture of bovine brain capillary endothelial cells and rat glial cells); experiment: In vitro BBB co-culture model, Cu,br/Cu,pl ratio
Protocol: Figure 1 Schematic diagram of the experimental protocol. After 12 days of coculture in cell culture medium, both compartments of the in vitro BBB model consisting of a coculture of brain capillary endothlial cells and rat primary glial cells were filled with Hepes-buffered Ringer’s solution and the compounds dissolved at 2 µM were added in the luminal compartment (i.e donor). The presence of glial cells in the abluminal compartment was used to reproduce the non specific binding to brain tisssue within the brain prenchyma in vivo. After 1 hour, aliquots were taken from both compartments. In vitro Cu,br/Cu,pl at 1 h were calculated by dividing the concentration in the abluminal compartment (∼Cu,br) by the concentration in the luminal compartment (∼Cu,pl) at 1 h. The experimental data at 1 h were computed using the blue-norna steady-state calculator to generate the in vitro steady-state Cu,br/Cu,pl.
One hour after the addition of compounds dissolved at 2 µM in the luminal (i.e upper) compartment, aliquots were taken from both compartments previously filled with Hepes-buffered Ringer’s solution at the beginning of the experiment. […] The concentrations in both compartments of the in vitro assay after 1 h were computed using […] blue-norna.com to generate the in vitro steady-state Cu,br/Cu,pl.
The method of Dehouck et al. was used with minor modifications (Fig. 1). Bovine brain endothelial cells isolated from capillary fragments were cocultured with primary mixed glial cells from newborn Sprague–Dawley rats. The glial cells were isolated according to the method of Booher and Sensenbrenner and cultured for 3 weeks, plated on the bottom of cell culture clusters containing six wells each. The endothelial cells were seeded onto collagen-coated polycarbonate cell culture inserts (4.7 cm^2) (Corning Incorp. NY, USA), which were placed in the wells containing glial cells. The medium used for the coculture was Dulbecco’s modified Eagle’s medium supplemented with 10% calf serum, 10% horse serum, 2 mmol/L glutamine, 50 mg/L gentamicin and 1 µg/L basic fibroblast growth factor (Sigma). The medium was changed every second day. Experiments were usually initiated after 12 days of co-culture.
To monitor the integrity of the endothelial cell monolayer, the marker molecule [^14C] sucrose was added to the solution at a concentration of 0.05 µCi/ml. At the start of the transport experiments, buffered Ringer’s solution (pH = 7.4) was added to wells with glial cells. Inserts with brain endothelial cells were placed in these wells and drug solutions at 2 µM were added to the donor compartment. The plates were incubated for 1 h in a polymix shaker at 37°C with a low shaking velocity. Aliquots were taken from the donor compartment in the beginning and at the end of the experiments. The receiver compartments were sampled at the end of the experiments.
The amount of radiotracer in the abluminal compartment was measured in a liquid scintillation analyser (Packard Instrument Company, Meriden, USA). […] The concentrations of the test compound in all samples were analysed by MS/MS.
The mean free brain/plasma ratios were calculated from three individual experiments. One hour ratios were calculated by dividing the drug concentration in the receiver compartment by the free drug concentration in the donor compartment after 1 h. The experimental data at one hour (i.e concentration in both compartment at the beginning of the experiment and after 1 h) were computed using the blue-norna® steady-state calculator (www.blue-norna.com) to predict the in vivo steady-state Cu,br/Cu,pl ratios. For further details on this calculation method see file S1.
The in vivo steady-state Cu,br/Cu,pl were predicted from the in vitro experimental data collected after one hour according to the following equation: […]
Cdonor, t and Creceiver, t are the concentration of drug in the donor and receiver chambers at time t.

[2] = Fraction unbound brain (fu,br), brain slice method
Protocol: Rats (male Sprague-Dawley) were decapitated under isoflurane anesthesia and the brains were removed carefully and immersed in ice-cold oxygenated physiological buffer at pH7.4. A 6 mm coronal section was cut with a razor and mounted with cyanoacrylate glue onto the tray of the microslicer (DTK-Zero 1 Microslicer, Dosak) after which six to eight 300 µm coronal slices from striatal areas were prepared. […] The compounds were dissolved at 1 µM in the buffer and the solution was incubated with the slice for 5 h.
After 5 h, the brain slices were weighed and homogenized in 9 volumes (w/v) of ECF buffer with a sonicator (SONICS VCX 500 and VCX 130). The slice homogenates in ECF buffer were stored at −20°C prior to analysis. The concentrations of the test compound in the brain slice homogenate and in the ECF buffer was determined by LC-MS/MS.
The unbound volume of distribution Vu,brain, or free fraction fu,brain was calculated according to the following equations: [drawing 1] [drawing 2] where Cslice, CECF and V0 are amount of drug in the slice, the drug concentration in the ECF (representing the drug concentration in the brain ECF, i.e. the free concentration), and the water adhesion of the brain slice. V0 has been estimated using ^14C -inulin in a separate experiment in which brain slices were incubated for 1, 2, and 4 min. V0 was obtained from brain slice uptake – inulin time profile (apparent zero-time intercept).

[3] = Fraction unbound brain (fu,br), brain homogenate equilibrium dialysis
Protocol: The degree of brain binding was assessed by equilibrium dialysis. Brain homogenate (10%) was spiked with test compound at 1 µM in triplicate. […] The plate was then placed in a shaker/incubator to equilibrate for 18 hrs at 37°C. […] After the addition of 50 µl of buffer to the brain homogenate samples, 150 µl of acetonitrile was added to each sample. Finally, 50 µl of water was added to all buffer and brain homogenate samples. The plates were centrifuged and the supernatant analyzed by LC-MS/MS.

[4] = 2 µM in luminal compartment, abluminal/luminal concentration at 1 h
[5] = steady-state ratio computed from 1 h data with the blue-norna steady-state calculator
[6] = rat brain slices 300 µm, 1 µM, 5 h incubation
[7] = brain homogenate (10%), 1 µM, equilibrium dialysis 18 hrs at 37°C

Compound | In vitro Cu,br/Cu,pl Mean 1 h [1, 4] | In vitro Cu,br/Cu,pl Mean steady-state [1, 5] | fubrain (slice) Mean [2, 6] | fubrain (homog.) Mean [3, 7] | In vitro Cu,br/Cu,pl Mean steady-state ([1]; bovine / rat, 2 µM, pH 7.4) | In vitro Cu,br/Cu,pl Mean 1 h ([1]; bovine / rat, 1 h, 2 µM, pH 7.4) | fubrain (slice) Mean ([2]; male, Sprague-Dawley, rat, 5 h, 1 µM) | fubrain (homog.) Mean ([3]; 18 h, 1 µM) | fubrain (slice) Mean ([2]; male, Sprague-Dawley, rat) | fubrain (homog.) Mean [3]
CN(C)CCC=C1c2ccccc2CCc2ccccc21 [Amitriptyline] | 0.07 | 0.59 | 0.0060 | 0.0090 | – | – | – | – | – | –
NCC(CC(=O)O)c1ccc(Cl)cc1 (stereo not drawn) [Baclofen] | 0.05 | 0.06 | 0.5800 | 0.5000 | – | – | – | – | – | –
Cn1c(=O)c2c(ncn2C)n(C)c1=O [Caffeine] | 0.34 | 0.55 | 0.7100 | 0.5000 | – | – | – | – | – | –
NC(=O)N1c2ccccc2C=Cc2ccccc21 [Carbamazepine] | 0.25 | 0.31 | 0.2000 | 0.1160 | – | – | – | – | – | –
CCCC(C)(COC(N)=O)COC(=O)NC(C)C (stereo not drawn) [Carisoprodol] | 0.31 | 0.61 | 0.5600 | 0.2020 | – | – | – | – | – | –
CN(C)CCCN1c2ccccc2Sc2ccc(Cl)cc21 [Chlorpromazine] | 0.06 | 0.69 | 0.0032 | 0.0008 | – | – | – | – | – | –
CNCCC(Oc1ccc(C(F)(F)F)cc1)c1ccccc1 (stereo not drawn) [Fluoxetine] | 0.10 | 0.96 | 0.0027 | 0.0023 | – | – | – | – | – | –
NCC1(CC(=O)O)CCCCC1 [Gabapentin] | 0.06 | 0.14 | 0.2400 | 0.7820 | – | – | – | – | – | –
O=C(CCCN1CCC(O)(c2ccc(Cl)cc2)CC1)c1ccc(F)cc1 [Haloperidol] | 0.09 | 0.70 | 0.0140 | 0.0071 | – | – | – | – | – | –
OCCOCCN1CCN(C(c2ccccc2)c2ccc(Cl)cc2)CC1 (stereo not drawn) [Hydroxyzine] | 0.05 | 0.47 | 0.0170 | 0.0100 | – | – | – | – | – | –
CC(C)(C)NC(=O)[C@@H]1CN(Cc2cccnc2)CCN1C[C@@H](O)C[C@@H](Cc1ccccc1)C(=O)N[C@H]1c2ccccc2C[C@H]1O [Indinavir] | 0.04 | 0.10 | – | – | – | – | – | – | – | –
Nc1nnc(-c2cccc(Cl)c2Cl)c(N)n1 [Lamotrigine] | 0.27 | 0.43 | 0.3600 | 0.2000 | – | – | – | – | – | –
CNCCC=C1c2ccccc2CCc2ccccc21 [Nortriptyline] | 0.08 | 0.81 | 0.0045 | 0.0046 | – | – | – | – | – | –
O=C1NC(=O)C(c2ccccc2)(c2ccccc2)N1 [Phenytoin] | 0.22 | 0.44 | 0.1200 | 0.0800 | – | – | – | – | – | –
CCN1CCCC1CNC(=O)c1cc(S(N)(=O)=O)ccc1OC (stereo not drawn) [Sulpiride] | 0.05 | 0.09 | 0.4400 | 0.6000 | – | – | – | – | – | –
CNS(=O)(=O)Cc1ccc2[nH]cc(CCN(C)C)c2c1 [Sumatriptan] | 0.05 | 0.05 | 0.6100 | 0.4000 | – | – | – | – | – | –
Nc1c2c(nc3ccccc13)CCCC2 [Tacrine] | – | – | – | – | 0.58 | 0.23 | 0.1200 | 0.1200 | – | –
CSc1ccc2c(c1)N(CCC1CCCCN1C)c1ccccc1S2 (stereo not drawn) [Thioridazine] | 0.08 | 0.68 | 0.0017 | 0.0010 | – | – | – | – | – | –
CN1CCN(CCCN2c3ccccc3Sc3ccc(C(F)(F)F)cc32)CC1 [Trifluoperazine] | 0.09 | 0.71 | 0.0007 | 0.0007 | – | – | – | – | – | –
Cc1ccc(-c2nc3ccc(C)cn3c2CC(=O)N(C)C)cc1 [Zolpidem] | 0.25 | 0.49 | – | – | – | – | – | – | 0.3500 | 0.2000
